Results from ChEMBL document CHEMBL1201862, “PubChem BioAssay data set” (2004).
The source made the active and inactive calls.

Assays:
[1] = biological target: Serine/threonine-protein phosphatase PP1-alpha catalytic subunit (Homo sapiens, UniProt P62136); experiment: PP1 phosphatase inhibitors, dose response, biochemical, fluorescence (AID 2394)
[2] = biological target: T1, Serine/threonine-protein phosphatase (Homo sapiens, UniProt Q9BPW0); experiment: PP5 phosphatase inhibitors, dose response, biochemical, fluorescence (AID 2395)
T1 sequence (Q9BPW0 whole entry): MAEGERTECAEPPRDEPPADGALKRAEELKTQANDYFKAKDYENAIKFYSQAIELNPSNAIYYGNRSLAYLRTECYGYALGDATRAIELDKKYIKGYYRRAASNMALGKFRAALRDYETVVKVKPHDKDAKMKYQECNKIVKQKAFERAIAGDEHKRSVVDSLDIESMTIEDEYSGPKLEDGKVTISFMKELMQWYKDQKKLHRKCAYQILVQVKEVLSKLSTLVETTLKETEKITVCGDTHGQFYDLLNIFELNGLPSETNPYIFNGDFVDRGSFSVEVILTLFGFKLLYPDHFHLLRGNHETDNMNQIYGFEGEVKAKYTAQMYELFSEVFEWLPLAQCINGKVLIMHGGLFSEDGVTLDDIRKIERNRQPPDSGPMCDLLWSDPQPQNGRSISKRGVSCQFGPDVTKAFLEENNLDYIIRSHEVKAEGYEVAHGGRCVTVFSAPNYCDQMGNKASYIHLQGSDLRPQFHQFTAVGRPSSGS

[3] = biological target: T2, Replicative DNA helicase DnaB (Mycobacterium tuberculosis, UniProt P9WMR3); experiment: DnaB intein splicing inhibitors, dose response, biochemical, cell-free fluorescence (AID 449749); assay type: functional
T2 sequence (P9WMR3 whole entry): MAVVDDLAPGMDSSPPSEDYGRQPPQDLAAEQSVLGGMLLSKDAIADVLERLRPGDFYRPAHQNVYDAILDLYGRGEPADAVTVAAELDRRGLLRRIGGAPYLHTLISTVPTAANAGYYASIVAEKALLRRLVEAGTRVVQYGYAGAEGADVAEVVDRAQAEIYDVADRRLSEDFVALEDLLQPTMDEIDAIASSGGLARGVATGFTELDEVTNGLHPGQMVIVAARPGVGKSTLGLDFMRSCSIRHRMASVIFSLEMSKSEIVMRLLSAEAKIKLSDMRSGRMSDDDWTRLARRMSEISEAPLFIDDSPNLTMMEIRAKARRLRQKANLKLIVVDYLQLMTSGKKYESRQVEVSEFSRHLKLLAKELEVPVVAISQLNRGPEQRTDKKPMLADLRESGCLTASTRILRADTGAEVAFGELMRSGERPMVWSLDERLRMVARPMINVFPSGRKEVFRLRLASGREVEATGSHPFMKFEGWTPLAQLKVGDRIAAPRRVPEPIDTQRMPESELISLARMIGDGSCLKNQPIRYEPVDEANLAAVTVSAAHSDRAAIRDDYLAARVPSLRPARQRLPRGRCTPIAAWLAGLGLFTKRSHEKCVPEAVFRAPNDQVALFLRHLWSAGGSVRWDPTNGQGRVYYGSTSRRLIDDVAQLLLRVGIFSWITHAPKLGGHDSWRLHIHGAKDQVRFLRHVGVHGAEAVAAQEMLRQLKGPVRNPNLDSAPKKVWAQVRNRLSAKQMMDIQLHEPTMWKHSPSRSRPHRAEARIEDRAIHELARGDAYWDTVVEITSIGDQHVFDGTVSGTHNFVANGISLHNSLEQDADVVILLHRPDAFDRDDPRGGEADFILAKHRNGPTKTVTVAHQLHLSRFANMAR

[4] = biological target: T3, High affinity choline transporter 1 (Homo sapiens, UniProt Q9GZV3); experiment: CHT inhibitors, dose response, cell-based, 5-point CRC, membrane potential dye (AID 504840); assay type: functional
T3 sequence (Q9GZV3 whole entry): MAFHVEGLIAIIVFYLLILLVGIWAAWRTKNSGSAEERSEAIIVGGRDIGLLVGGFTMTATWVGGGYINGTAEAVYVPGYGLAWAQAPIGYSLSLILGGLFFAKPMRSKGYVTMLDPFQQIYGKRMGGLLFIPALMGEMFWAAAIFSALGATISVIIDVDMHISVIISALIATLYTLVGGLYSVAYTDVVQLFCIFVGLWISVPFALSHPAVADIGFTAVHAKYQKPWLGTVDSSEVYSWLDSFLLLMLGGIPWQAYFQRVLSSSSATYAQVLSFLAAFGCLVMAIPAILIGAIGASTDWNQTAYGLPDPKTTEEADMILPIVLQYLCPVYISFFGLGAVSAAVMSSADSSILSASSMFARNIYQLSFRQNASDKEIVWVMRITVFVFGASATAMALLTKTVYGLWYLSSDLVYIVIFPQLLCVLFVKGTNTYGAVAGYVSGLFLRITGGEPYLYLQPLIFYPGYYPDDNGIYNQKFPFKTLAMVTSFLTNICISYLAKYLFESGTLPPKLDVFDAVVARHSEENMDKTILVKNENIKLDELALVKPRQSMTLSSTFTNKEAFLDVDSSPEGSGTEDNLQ

Protein RecA = biological target: T4, Protein RecA (Mycobacterium tuberculosis, UniProt P9WHJ3); experiment: Fluorescence Cell-Free Homogeneous Dose Retest to Identify Inhibitors of RecA-Intein Splicing Activity. [Related pubchem assays (depositor defined):AID2097, AID2223, AID489010, AID492950]; assay type: functional
T4 sequence (P9WHJ3 whole entry): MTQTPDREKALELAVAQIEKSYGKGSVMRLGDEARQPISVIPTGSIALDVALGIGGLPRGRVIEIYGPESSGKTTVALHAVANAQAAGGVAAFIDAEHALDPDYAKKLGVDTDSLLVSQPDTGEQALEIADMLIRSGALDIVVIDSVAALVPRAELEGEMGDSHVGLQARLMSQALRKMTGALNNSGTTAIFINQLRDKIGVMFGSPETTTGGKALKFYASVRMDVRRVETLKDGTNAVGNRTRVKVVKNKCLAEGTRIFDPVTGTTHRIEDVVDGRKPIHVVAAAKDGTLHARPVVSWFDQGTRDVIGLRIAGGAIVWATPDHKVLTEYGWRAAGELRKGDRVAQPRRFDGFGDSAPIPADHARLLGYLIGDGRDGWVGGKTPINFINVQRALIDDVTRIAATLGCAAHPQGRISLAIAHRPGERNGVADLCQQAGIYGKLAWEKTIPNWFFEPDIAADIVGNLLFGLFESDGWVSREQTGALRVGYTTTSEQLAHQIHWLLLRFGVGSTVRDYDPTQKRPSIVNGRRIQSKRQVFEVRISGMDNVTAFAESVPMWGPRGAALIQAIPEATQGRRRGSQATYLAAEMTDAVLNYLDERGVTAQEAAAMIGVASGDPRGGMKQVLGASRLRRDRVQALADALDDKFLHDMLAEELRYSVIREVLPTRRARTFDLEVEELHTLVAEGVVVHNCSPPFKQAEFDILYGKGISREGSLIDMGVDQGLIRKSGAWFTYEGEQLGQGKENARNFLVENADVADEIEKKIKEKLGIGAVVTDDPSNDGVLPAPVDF

[5] = biological target: T3, High affinity choline transporter 1; experiment: CHT inhibitors, dose response, cell-based, 10-point CRC, membrane potential dye (AID 588401); assay type: functional;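 note: membrane potential dye fluorescence of choline-evoked depolarization via CHT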
Genome polyprotein = Genome polyprotein (dengue virus type 2, UniProt P29990); experiment: Dengue-2 NS5 methyltransferase inhibitors, primary screen, biochemical, confirmation dose response (AID 588689); assay type: functional
Fatty acid synthase [6] = biological target: T5, Fatty acid synthase (Homo sapiens, UniProt P49327); experiment: FAS thioesterase domain inhibitors, dose response, biochemical, endpoint fluorescence intensity, uHTS hits (AID 624327); assay type: functional;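 note: fluorescence from hydrolysis of an O-methyl fluorescein acyl ester substrate by the enzyme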
Fatty acid synthase [7] = biological target: T5, Fatty acid synthase; experiment: FAS thioesterase domain inhibitors, dose response, biochemical, kinetic fluorescence intensity (AID 624326); assay type: functional;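 note: rate of fluorescence rise from hydrolysis of a fluorogenic O-methyl fluorescein ester substrate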

T5 sequence (P49327 whole entry, the tested form may be a part): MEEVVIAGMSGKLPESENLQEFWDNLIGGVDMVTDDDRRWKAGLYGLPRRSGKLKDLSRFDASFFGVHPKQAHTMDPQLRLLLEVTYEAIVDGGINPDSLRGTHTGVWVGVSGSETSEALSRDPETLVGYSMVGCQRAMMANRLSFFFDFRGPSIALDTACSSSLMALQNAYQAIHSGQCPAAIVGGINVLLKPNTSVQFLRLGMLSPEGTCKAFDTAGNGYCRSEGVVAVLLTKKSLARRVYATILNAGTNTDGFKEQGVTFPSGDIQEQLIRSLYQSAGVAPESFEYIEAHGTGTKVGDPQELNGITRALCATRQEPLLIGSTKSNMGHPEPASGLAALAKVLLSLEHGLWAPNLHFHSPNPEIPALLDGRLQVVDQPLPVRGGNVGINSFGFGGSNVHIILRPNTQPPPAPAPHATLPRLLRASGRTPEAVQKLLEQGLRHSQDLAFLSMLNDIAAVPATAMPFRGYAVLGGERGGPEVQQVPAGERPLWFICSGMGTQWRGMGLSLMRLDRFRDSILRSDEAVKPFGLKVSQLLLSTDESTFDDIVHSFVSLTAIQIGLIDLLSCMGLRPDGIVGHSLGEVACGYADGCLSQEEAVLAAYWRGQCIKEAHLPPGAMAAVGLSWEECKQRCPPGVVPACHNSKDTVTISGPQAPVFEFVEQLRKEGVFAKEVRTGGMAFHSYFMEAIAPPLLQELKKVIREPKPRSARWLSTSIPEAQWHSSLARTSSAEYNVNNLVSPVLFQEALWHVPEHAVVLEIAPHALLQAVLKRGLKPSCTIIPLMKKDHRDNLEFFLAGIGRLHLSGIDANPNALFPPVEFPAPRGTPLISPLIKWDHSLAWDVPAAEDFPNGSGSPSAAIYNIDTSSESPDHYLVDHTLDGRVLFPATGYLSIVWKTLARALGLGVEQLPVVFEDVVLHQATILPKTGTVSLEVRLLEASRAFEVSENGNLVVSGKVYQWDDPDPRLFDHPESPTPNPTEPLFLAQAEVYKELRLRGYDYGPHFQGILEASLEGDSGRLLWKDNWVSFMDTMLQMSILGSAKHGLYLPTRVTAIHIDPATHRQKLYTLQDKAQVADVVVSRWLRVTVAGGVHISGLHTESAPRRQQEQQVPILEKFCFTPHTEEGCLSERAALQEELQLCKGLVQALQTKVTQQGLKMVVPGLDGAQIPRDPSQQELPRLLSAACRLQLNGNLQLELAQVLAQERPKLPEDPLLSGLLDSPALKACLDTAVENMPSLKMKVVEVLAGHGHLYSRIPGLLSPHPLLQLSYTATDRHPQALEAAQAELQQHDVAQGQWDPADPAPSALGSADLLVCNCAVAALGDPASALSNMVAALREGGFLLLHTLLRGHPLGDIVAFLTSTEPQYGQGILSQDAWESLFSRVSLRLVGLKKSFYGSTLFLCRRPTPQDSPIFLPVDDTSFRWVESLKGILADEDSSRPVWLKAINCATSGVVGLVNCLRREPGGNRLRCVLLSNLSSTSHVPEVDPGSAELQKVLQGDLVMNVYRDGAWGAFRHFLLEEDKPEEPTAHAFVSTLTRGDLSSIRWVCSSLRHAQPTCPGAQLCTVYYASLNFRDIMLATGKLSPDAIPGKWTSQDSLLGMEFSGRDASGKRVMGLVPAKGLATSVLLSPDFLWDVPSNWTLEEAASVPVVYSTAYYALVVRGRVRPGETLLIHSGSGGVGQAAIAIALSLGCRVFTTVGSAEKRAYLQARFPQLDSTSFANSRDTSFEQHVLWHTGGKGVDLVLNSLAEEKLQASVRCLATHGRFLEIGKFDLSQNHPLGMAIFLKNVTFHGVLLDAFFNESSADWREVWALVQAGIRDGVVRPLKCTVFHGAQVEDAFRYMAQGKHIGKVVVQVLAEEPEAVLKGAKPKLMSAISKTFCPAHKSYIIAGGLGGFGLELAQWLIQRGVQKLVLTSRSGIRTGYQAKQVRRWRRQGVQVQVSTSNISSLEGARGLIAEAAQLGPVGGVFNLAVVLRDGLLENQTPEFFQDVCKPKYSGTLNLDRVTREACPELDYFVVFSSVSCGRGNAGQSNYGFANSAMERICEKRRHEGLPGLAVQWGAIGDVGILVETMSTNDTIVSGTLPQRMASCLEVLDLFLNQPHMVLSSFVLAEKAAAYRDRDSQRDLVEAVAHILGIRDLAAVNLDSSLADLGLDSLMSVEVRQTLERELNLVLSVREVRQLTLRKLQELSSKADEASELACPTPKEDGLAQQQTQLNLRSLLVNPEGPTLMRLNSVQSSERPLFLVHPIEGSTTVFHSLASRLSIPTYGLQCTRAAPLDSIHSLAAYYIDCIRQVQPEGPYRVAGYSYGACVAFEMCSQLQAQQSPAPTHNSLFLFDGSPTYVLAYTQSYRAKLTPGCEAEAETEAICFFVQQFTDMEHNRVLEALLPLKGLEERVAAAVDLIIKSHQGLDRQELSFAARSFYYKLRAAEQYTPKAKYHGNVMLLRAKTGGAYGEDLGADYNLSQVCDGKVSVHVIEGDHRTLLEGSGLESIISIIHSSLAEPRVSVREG
Serine/threonine-protein phosphatase PP1-alpha catalytic subunit, sequence (P62136 whole entry): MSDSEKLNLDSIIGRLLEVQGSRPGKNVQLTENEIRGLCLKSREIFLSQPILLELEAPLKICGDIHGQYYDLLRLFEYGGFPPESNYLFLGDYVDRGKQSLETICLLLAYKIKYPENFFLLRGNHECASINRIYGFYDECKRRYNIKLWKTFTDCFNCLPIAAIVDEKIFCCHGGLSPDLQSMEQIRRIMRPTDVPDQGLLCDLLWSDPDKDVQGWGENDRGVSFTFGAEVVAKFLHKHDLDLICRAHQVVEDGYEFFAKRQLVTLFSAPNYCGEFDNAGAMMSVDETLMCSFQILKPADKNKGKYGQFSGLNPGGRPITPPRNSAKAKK
Genome polyprotein, sequence (P29990 2492-3391 limits assumed): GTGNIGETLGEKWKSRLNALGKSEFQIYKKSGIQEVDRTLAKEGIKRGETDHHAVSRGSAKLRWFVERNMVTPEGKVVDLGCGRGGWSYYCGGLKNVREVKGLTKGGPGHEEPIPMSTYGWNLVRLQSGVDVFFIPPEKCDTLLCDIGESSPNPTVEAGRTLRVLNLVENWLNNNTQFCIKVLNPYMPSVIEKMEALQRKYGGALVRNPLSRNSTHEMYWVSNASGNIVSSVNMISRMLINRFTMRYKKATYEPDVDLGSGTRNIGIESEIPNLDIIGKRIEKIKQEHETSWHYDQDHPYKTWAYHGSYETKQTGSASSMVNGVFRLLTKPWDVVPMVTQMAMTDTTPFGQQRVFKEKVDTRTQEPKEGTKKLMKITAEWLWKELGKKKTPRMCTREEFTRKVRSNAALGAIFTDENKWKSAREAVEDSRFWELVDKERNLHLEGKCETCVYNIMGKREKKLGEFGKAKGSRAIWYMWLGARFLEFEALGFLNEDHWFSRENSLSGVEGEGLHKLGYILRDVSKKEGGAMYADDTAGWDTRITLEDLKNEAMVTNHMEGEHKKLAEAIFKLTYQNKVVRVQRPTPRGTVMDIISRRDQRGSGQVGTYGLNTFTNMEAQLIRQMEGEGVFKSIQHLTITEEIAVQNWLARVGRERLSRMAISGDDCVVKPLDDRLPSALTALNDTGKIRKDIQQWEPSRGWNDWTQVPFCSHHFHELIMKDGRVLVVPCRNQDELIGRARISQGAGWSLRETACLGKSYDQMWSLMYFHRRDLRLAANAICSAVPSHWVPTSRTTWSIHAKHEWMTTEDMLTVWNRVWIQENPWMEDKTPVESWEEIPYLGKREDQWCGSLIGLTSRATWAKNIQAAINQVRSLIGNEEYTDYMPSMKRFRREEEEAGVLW

SMILES: Cc1[nH]n(-c2ccccc2)c(=O)c1C(c1ccc([N+](=O)[O-])cc1)c1c(C)[nH]n(-c2ccccc2)c1=O
- IC50 [1]: 29.9 µM (not active)
- IC50 [2]: 9.57 µM (active)
- AC50 [3]: 1.24 µM (active)
- IC50 [4]: 10.3 µM (active)
- EC50 (Protein RecA): 0.39 µM (active)
- IC50 [5]: 2.82 µM (active)
- IC50 (Genome polyprotein): 33.2 µM (active)
- IC50 (Fatty acid synthase [6]): 3.19 µM (active)
- IC50 (Fatty acid synthase [7]): 5.6 µM (active)
